Structures can show the parent of a compound that is named as a salt.
What was measured:
[1] = Solubility in water at the indicated pH; type: physicochemical
Text: The following Table 2 reports the solubility in water at the indicated pH of a representative compound of the invention (R,S)-2-amino-4-(3',4'-difluorophenyl)-4-oxo-2-butanoic acid hydrochloride (PNU 156830) in comparison with the known reference compound of WO 95/03271: (R,S)-2-amino-4-(3',4'-dichlorophenyl)-4-oxo-butanoic acid hydrochloride (internal code: PNU 156561).

kynurenine-3-hydroxylase [2] = molecular target: T1, kynurenine-3-hydroxylase (Rattus norvegicus, UniProt O88867); experiment: Kynurenine-3-hydroxylase assay in the rat brain; type: biochemical; set-up: from tissue; conditions: rat brain homogenate, 50 μM L-kynurenine, 60 min; read-out: Enzyme Inhibition (Brain) IC50
T1 sequence (O88867 whole entry): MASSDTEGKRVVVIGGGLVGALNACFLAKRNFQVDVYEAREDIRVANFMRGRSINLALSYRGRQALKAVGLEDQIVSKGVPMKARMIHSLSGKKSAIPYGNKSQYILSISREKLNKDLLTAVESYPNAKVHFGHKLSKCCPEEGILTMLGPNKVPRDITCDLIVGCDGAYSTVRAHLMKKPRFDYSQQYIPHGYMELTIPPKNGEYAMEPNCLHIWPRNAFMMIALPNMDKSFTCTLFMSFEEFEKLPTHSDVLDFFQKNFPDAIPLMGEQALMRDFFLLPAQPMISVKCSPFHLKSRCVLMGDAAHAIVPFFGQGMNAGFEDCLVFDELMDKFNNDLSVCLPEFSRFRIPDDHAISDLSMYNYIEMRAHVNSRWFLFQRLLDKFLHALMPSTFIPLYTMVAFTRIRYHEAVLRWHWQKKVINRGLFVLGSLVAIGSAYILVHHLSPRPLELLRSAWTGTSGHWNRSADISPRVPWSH
Experimental: Kynurenine-3-hydroxylase Assay in the Rat Brain
Brain was homogenized in ice-cold 0.32 M sucrose and centrifuged at 12000×g for 30 min at 4° C. The pellet was washed three times with 0.32 M sucrose by centrifugation and suspended in 0.14 M KCl in 20 mM K-phosphate buffer at pH 7 (1 g tissue in 2 ml buffer). The reaction mixture contained: 75 μl of suspended homogenate; 100 μl of substrate solution containing 50 mM K-phosphate buffer pH 7.5, 2 MM MgCl2, 0.4 mM NADPH, and 50 μM L-kynurenine (final concentration),and 25 μl of different concentrations of inhibitor solutions. The reaction was stopped by addition of 200 μl of 1 M HClO4 after 60 min incubation. L-3-hydroxykynurenine formed was quantified by HPLC with coulometric detection at a working voltage of +0.2 V. The column was a 10 cm C18 reversed phase (3 μm. The mobile phase consisted of 950 ml distilled water, 20 ml acetonitrile, 9 ml triethylamine, 5.9 ml phosphoric acid, 100 mg sodium EDTA and 1.5 g heptanesulfonic acid. The flow rate was 1 ml/min.

kynurenine-3-hydroxylase [3] = molecular target: T1, kynurenine-3-hydroxylase; experiment: Kynurenine-3-hydroxylase assay in the rat liver (mitochondrial extract); type: biochemical; set-up: Rat liver mitochondrial extract was used as enzymatic preparation for this assay; from tissue; host or cells: rat liver mitochondrial extract; conditions: 0.025 mM L-kynurenine, 37° C., 30 min, read-out: Enzyme Inhibition (Liver) IC50
Experimental: Kynurenine-3-hydroxylase Assay in the Rat Liver
The assay for kynurenine 3-hydroxylase was based on the enzymatic synthesis of tritiated water during the hydroxylation reaction. Radiolabeled water was quantified following selective adsorption of the isotopic substrate and its metabolite with activated charcoal.
Rat liver mitochondrial extract was used as enzymatic preparation for this assay.
The assay for kynurenine 3-hydroxylase activity was carried out at 37° C. for a time of 30 min. The reaction mixture of a total volume of […] was constituted of […] of suspended extract, 100 mM Tris/Cl buffer pH 8.1, 10 mM EDTA, 100 mM KCl, 0.8 mM NADPH, 0.025 mM L-kynurenine, […] L-(3,5-^3 H)Kynurenine (10 Ci/mmol) and […] of different concentration of inhibitor solutions. After the incubation the reaction was terminated by the addition of 1 mL of 7.5% (w/v) activated charcoal, vortexed and centrifugated for 7 min.
A […] aliquot of supernatant was counted by scintillation spectroscopy in 5 ml of liquid scintillation.

Compound	solubility ([1]; pH = 7.4) [mg/mL]	solubility ([1]; pH = 8) [mg/mL]	solubility ([1]; pH = 3) [mg/mL]	IC50 (kynurenine-3-hydroxylase [2]) [nM]	IC50 (kynurenine-3-hydroxylase [3]) [nM]
NC(CC(=O)c1ccc(Cl)c(Cl)c1)C(=O)O (racemic) [PNU 156561, (R,S)-2-amino-4-(3',4'-dichlorophenyl)-4-oxo-butanoic acid hydrochloride, reference compound]	0.2	15			
NC(CC(=O)c1ccc(F)c(F)c1)C(=O)O (racemic) [PNU 156830, (R,S)-2-amino-4-(3',4'-difluorophenyl)-4-oxo-2-butanoic acid hydrochloride]	18	36	38	120	420
N[C@H](CC(=O)c1ccc(F)c(F)c1)C(=O)O [PNU 158392, (R)-2-amino-4-(3',4'-difluorophenyl)-4-oxo-2-butanoic acid hydrochloride]					10900
N[C@@H](CC(=O)c1ccc(F)c(F)c1)C(=O)O [PNU 158393, (S)-2-amino-4-(3',4'-difluorophenyl)-4-oxo-2-butanoic acid hydrochloride]					220

Reference: US5973006A, “Fluoro-substituted benzoylpropionic acid derivatives” (Pharmacia & Upjohn S.p.A., priority 1995, dated 1999)
